Measured values taken from publication PMC4309560, “Creating Novel Activated Factor XI Inhibitors through Fragment Based Lead Generation and Structure Aided Drug Design” (PLoS ONE, 2015).

Assays:
[1] = target: T1, Human recombinant thrombin (Homo sapiens, UniProt P00734); assay: Thrombin (FIIa) chromogenic assay; format: biochemical; settings: read-out: FIIa % inhibition at 99 μM
T1 construct: Human recombinant thrombin was prepared in house; made in house
Method: (§1) Enzymatic assay. […] Selected compounds were also screened against other serine proteases to evaluate their selectivity profiles.
(§2) Once the compounds were synthesized and characterized, enzymatic assays were performed to evaluate the inhibitory activity of the resulting compounds against FXIa and other serine proteases. […] IC50 values for the compounds were determined using equation: Q= V/(1+([I]/IC50)^n) Q denotes the assay readout, V denotes the uninhibited velocity of the enzyme, [I] denotes the inhibitor concentration, n denotes the slope and IC50 is the inhibitor concentration at V/2.
(§3) [S] denotes the substrate concentration.
Thrombin. Human recombinant thrombin was prepared in house.

[2] = target: Recombinant human trypsin (Homo sapiens, UniProt P07477); assay: biochemical; settings: read-out: Trypsin % inhibition at 99 μM
Method: as §1, §2
Trypsin. Recombinant human trypsin was from Polymun, Vienna, Austria.

[3] = target: Human tPA (Homo sapiens, UniProt P00750); assay: biochemical; settings: read-out: tPA % inhibition at 99 μM
Method: as §1, §2
tPa. Human tPA was from Biopool, Umeå, Sweden.

[4] = target: T2, Human plasmin (Homo sapiens, UniProt P00747); assay: Plasmin chromogenic assay; format: biochemical; settings: read-out: Plasmin % inhibition at 99 μM
T2 construct: Human plasmin was from Enzyme Research Laboratories, Swansea, UK; purchased Enzyme Research Laboratories, Swansea, UK
Method: as §1, §2, §3
Plasmin. Human plasmin was from Enzyme Research Laboratories, Swansea, UK.

[5] = test system: rat FXIa; assay: Species selectivity: rat FXIa potency; format: biochemical; settings: rat vs human FXIa
[6] = Chromatographic determination of lipophilicity; format: physicochemical; settings: reversed-phase UPLC, Waters BEH C18 stationary phase, pH 7.4; measured by liquid chromatography, pH7.4
Description: The chromatographic data was obtained utilizing a Waters Aquity UPLC chromatographic system running a gradient from 5–95% acetonitrile at pH7.4. The stationary phase was a Waters BEH C18 2.1x50 mm. Standardized retention data were obtained by normalization against a set of compounds with precisely determined (octanol/water) logD-values. Lipophilicity values for samples were derived from a corresponding calibration curve.

[7] = Caco2 efflux; format: in vitro ADME; settings: human, Caco-2; Caco2, Papp B to A / Papp A to B, pH 7.4 at side A
Description: Efflux was studied in the same Caco2 cells with the modification that HBSS buffer pH 7.4 was used on both sides of the monolayer. The permeability was studied in the apical to basolateral direction (Papp AB) as well as in the basolateral to apical direction and (Papp BA). Efflux ratios were derived from the following equation: Papp BA/Papp AB.

[8] = test system: rat hepatocytes; assay: Rat hepatocyte metabolic stability assay; format: in vitro ADME
Method: Rat hepatocyte metabolic stability was determined in accordance with the method described by Jacobson et al.. Cryo preserved hepatocytes at a concentration of 10^6 viable cells/mL were used. After thawing, hepatocytes were incubated for 10 min to warm to 37°C and test compounds, dissolved in acetonitrile, were added to give a final concentration of 1 μM. At 0.5, 5, 15, 30, 45, 60, 80, 100 and 120 min, the incubation system was mixed and 20 μL aliquots were transferred at each time point to wells in a separate plate filled with 80 μL acetonitrile to stop the reaction. The quenching plate was then vortexed followed by centrifugation, and supernatants were analyzed by LC/MS/MS. Peak areas were determined from extracted ion chromatograms, and the in vitro intrinsic clearance (in vitro CLint, in μL/min/10^6 cells) of parent compound was calculated from the slope in the regression analysis of the natural logarithm of parent concentration vs. time curve.

T2 sequence (P00747 581-810 limits assumed): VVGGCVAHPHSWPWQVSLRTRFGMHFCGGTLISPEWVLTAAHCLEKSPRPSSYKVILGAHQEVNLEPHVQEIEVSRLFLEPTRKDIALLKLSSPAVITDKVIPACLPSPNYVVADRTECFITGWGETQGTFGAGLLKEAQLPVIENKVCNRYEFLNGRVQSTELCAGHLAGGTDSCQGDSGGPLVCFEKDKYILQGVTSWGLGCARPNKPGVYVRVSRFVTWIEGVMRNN
T2 sequence (P00747 97-580 partner limits assumed): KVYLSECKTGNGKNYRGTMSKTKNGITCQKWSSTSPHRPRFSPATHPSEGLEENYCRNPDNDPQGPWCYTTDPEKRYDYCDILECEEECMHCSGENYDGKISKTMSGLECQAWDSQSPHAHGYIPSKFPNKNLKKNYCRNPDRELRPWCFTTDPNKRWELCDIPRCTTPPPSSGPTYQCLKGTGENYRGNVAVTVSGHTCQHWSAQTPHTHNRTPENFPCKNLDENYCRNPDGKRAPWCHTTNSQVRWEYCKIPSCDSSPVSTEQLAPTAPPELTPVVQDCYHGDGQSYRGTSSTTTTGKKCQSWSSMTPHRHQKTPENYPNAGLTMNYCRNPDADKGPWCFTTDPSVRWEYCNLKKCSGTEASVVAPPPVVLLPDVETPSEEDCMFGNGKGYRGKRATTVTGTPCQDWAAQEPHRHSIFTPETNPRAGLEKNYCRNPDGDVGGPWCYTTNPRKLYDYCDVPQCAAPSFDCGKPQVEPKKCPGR
Human tPA, sequence (P00750 36-562): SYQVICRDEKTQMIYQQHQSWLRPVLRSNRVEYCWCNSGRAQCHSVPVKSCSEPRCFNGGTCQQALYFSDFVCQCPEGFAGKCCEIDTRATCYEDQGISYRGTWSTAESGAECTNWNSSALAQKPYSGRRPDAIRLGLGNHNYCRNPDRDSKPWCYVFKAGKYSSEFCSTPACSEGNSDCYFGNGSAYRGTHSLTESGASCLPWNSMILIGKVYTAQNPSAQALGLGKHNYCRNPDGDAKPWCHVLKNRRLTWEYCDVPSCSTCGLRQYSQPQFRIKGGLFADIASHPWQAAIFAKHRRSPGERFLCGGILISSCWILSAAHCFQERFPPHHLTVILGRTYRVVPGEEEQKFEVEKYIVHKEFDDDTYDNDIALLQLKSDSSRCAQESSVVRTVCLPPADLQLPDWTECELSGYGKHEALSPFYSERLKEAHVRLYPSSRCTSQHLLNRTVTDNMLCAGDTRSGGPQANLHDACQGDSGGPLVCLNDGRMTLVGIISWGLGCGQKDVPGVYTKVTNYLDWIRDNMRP

Question: For `O=C(N[C@@H](Cc1ccccc1)C(=O)NCc1cc(=O)[nH]c2ccc(Cl)cc12)c1ccc2[nH]c(=O)cc(O)c2c1` [Compound 13, (S)-N-(1-{(6-Chloro-2-oxo-1,2-dihydroquinolin-4-yl)methylamino}-1-oxo-3-phenylpropan-2-yl)-4-hydroxy-2-oxo-1,2-dihydroquinoline-6-carboxamide], which inhibition at 99 µM [1] is on record?
Answer: The inhibition at 99 µM was 11%.

Question: What about the inhibition at 99 µM [2] of the same molecule?
Answer: Its inhibition at 99 µM is 12%.

Question: And the inhibition at 99 µM [3]?
Answer: Its inhibition at 99 µM is 2%.

Question: What about the inhibition at 99 µM [4] of the same molecule?
Answer: Its inhibition at 99 µM is 14%.

Question: What about the “potency against rat FXIa relative to human FXIa (fold less potent)” value [5] of the same molecule?
Answer: The value was “about 30000 fold”.

Question: And the chromatographic logD [6]?
Answer: Its chromatographic logD is 0.87.

Question: What about the efflux ratio [7] of the same molecule?
Answer: The efflux ratio was over 4.6.

Question: What about the “Rat CLint” value [8] of the same molecule?
Answer: Its value is 22 μL/min/ 1·10^6 cells.
